# US20250205256A1 (GH RESEARCH IRELAND LIMITED, priority 2022, published 2025)
# Values joined by “and” are separate entries in the source; they are usually repeats but may differ in a detail not shown here. Identical values can stand only once.
# Assays:
# [1] = test system: Escherichia coli strain WP2 uvrA pKM101; experiment: Bacterial mutation test, Escherichia coli; assay type: cell-based; conditions: up to 5000 μg/plate, absence and presence of rat liver S-9
# Experimental: These conditions included treatments at concentrations up to 5000 μg/plate (the maximum recommended concentration according to current regulatory guidelines), in the absence and in the presence of a rat liver metabolic activation system (S-9).
# [2] = test system: patients with treatment-resistant major depressive disorder (TRD); experiment: Phase 1/2 clinical trial of inhaled 5-MeO-DMT in TRD: BPRS items; assay type: in vivo, human; conditions: for BPRS Emotional Withdrawal score: baseline 13
# Text: Patients were assigned to different groups.
# The BPRS item that is of particular relevance to negative thinking is “guilt feelings”. This item relates to over concern or remorse for past behaviour. Possible scores are: • 1—No guilt feelings. • 2—Very Mild. Concerned about having failed someone or at something but not preoccupied. Can shift thoughts to other matters easily. • 3—Mild. Concerned about having failed someone or at something with some preoccupation. Tends to voice guilt to others. • 4—Moderate. Disproportionate preoccupation with guilt, having done wrong, injured others by doing or failing to do something, but can readily turn attention to other things. • 5—Moderately Severe. Preoccupation with guilt, having failed someone or at something, can turn attention to other things, but only with great effort. Not delusional. • 6—Severe; Delusional guilt or unreasonable self-reproach very out of proportion to circumstances. Moderate preoccupation present. • 7—Extremely Severe. Delusional guilt or unreasonable self-reproach grossly out of proportion to circumstances. Subject is very preoccupied with guilt and is likely to disclose to others or act on delusions.
# This trial was designed in two parts.
# [3] = test system: patient with postpartum depression (PPD); experiment: Clinical trial of inhaled 5-MeO-DMT in postpartum depression: Barkin Index of Maternal Functioning (BIMF); assay type: in vivo, human; conditions: PPD n=1
# Text: Maternal functioning can, for instance, be assessed using the Barkin Index of Maternal Functioning (BIMF). This index was designed to measure functioning in the year after childbirth. The BIMF is a 20-item self-report measure of functioning. Each item is assigned a score between 0 and 6 so that the maximum total score is 120. The higher the score, the better maternal functioning is rated.
# The BIMF identifies the key functional domains of a mother during the postnatal period as: self-care, infant care, mother-child interaction, psychological wellbeing of the mother, social support, management, and adjustment.
# The patient completed all planned visit days.
# [4] = 12 mg n=4 sum, 3 h after dose vs baseline
# [5] = 12 mg n=4 sum, Day 1 vs baseline
# [6] = 12 mg n=4 sum, Day 7 vs baseline
# [7] = IDR n=8 sum, 3 h after last dose vs baseline
smiles,measurement,setting,value
COc1ccc2[nH]cc(CCN(C)C)c2c1 [5-MeO-DMT],induction of mutation,[1],did not induce mutation
same,BPRS Anxiety improvement,[2]; [4],14
same,BPRS Blunted Affect improvement,[2]; [4],3
same,BPRS Emotional Withdrawal improvement,[2]; [4],2
same,BPRS Guilt Feelings improvement,[2]; [4],9
same,BPRS Guilt Feelings percentage improvement,[2]; [4],50.00%
same,BPRS Tension improvement,[2]; [4],5
same,BPRS Blunted Affect score,"[2]; 12 mg n=4 sum, 3 h after dose, baseline 11",8
same,BPRS Emotional Withdrawal score,"[2]; 12 mg n=4 sum, 3 h after dose",11
same,BPRS Tension score,"[2]; 12 mg n=4 sum, 3 h after dose, baseline 14",9
same,BPRS Guilt Feelings score,"[2]; 12 mg n=4 sum, 3 h after dose, baseline 18",9
same,BPRS Anxiety score,"[2]; 12 mg n=4 sum, 3 h after dose, baseline 25",11
same,BPRS Blunted Affect score,"[2]; 12 mg n=4 sum, Day 1, baseline 11",6
same,BPRS Emotional Withdrawal score,"[2]; 12 mg n=4 sum, Day 1",8
same,BPRS Tension score,"[2]; 12 mg n=4 sum, Day 1, baseline 14",6
same,BPRS Guilt Feelings score,"[2]; 12 mg n=4 sum, Day 1, baseline 18",5
same,BPRS Anxiety score,"[2]; 12 mg n=4 sum, Day 1, baseline 25",6
same,BPRS Anxiety improvement,[2]; [5],19
same,BPRS Blunted Affect improvement,[2]; [5],5
same,BPRS Emotional Withdrawal improvement,[2]; [5],5
same,BPRS Guilt Feelings improvement,[2]; [5],13
same,BPRS Tension improvement,[2]; [5],8
same,BPRS Blunted Affect score,"[2]; 12 mg n=4 sum, Day 7, baseline 11",5
same,BPRS Emotional Withdrawal score,"[2]; 12 mg n=4 sum, Day 7",6
same,BPRS Tension score,"[2]; 12 mg n=4 sum, Day 7, baseline 14",6
same,BPRS Guilt Feelings score,"[2]; 12 mg n=4 sum, Day 7, baseline 18",5
same,BPRS Anxiety score,"[2]; 12 mg n=4 sum, Day 7, baseline 25",6
same,BPRS Anxiety improvement,[2]; [6],19
same,BPRS Blunted Affect improvement,[2]; [6],6
same,BPRS Emotional Withdrawal improvement,[2]; [6],7
same,BPRS Guilt Feelings improvement,[2]; [6],13
same,BPRS Tension improvement,[2]; [6],8
same,BPRS Anxiety improvement,[2]; [7],18
same,BPRS Blunted Affect improvement,[2]; [7],4
same,BPRS Emotional Withdrawal improvement,[2]; [7],5
same,BPRS Guilt Feelings improvement,[2]; [7],20
same,BPRS Tension improvement,[2]; [7],5
same,BPRS Emotional Withdrawal score,"[2]; IDR n=8 sum, 3 h after last dose",8
same,BPRS Blunted Affect score,"[2]; IDR n=8 sum, 3 h after last dose, baseline 15",11
same,BPRS Tension score,"[2]; IDR n=8 sum, 3 h after last dose, baseline 16",11
same,BPRS Guilt Feelings score,"[2]; IDR n=8 sum, 3 h after last dose, baseline 34",14
same,BPRS Anxiety score,"[2]; IDR n=8 sum, 3 h after last dose, baseline 37",19
same,BPRS Emotional Withdrawal score,"[2]; IDR n=8 sum, Day 1",8
same,BPRS Blunted Affect score,"[2]; IDR n=8 sum, Day 1, baseline 15",8
same,BPRS Tension score,"[2]; IDR n=8 sum, Day 1, baseline 16",11
same,BPRS Guilt Feelings score,"[2]; IDR n=8 sum, Day 1, baseline 34",11
same,BPRS Anxiety score,"[2]; IDR n=8 sum, Day 1, baseline 37",16
same,BPRS Anxiety improvement,"[2]; IDR n=8 sum, Day 1 vs baseline",21
same,BPRS Blunted Affect improvement,"[2]; IDR n=8 sum, Day 1 vs baseline",7
same,BPRS Emotional Withdrawal improvement,"[2]; IDR n=8 sum, Day 1 vs baseline",5
same,BPRS Guilt Feelings improvement,"[2]; IDR n=8 sum, Day 1 vs baseline",23
same,BPRS Tension improvement,"[2]; IDR n=8 sum, Day 1 vs baseline",5
same,BPRS Emotional Withdrawal score,"[2]; IDR n=8 sum, Day 7",8
same,BPRS Blunted Affect score,"[2]; IDR n=8 sum, Day 7, baseline 15",8
same,BPRS Tension score,"[2]; IDR n=8 sum, Day 7, baseline 16",10
same,BPRS Guilt Feelings score,"[2]; IDR n=8 sum, Day 7, baseline 34",10
same,BPRS Anxiety score,"[2]; IDR n=8 sum, Day 7, baseline 37",17
same,BPRS Anxiety improvement,"[2]; IDR n=8 sum, Day 7 vs baseline",20
same,BPRS Blunted Affect improvement,"[2]; IDR n=8 sum, Day 7 vs baseline",7
same,BPRS Emotional Withdrawal improvement,"[2]; IDR n=8 sum, Day 7 vs baseline",5
same,BPRS Guilt Feelings improvement,"[2]; IDR n=8 sum, Day 7 vs baseline",24
same,BPRS Tension improvement,"[2]; IDR n=8 sum, Day 7 vs baseline",6
same,"BIMF total score improvement, percent","[3]; Day 7, from 92 to 105",14%
same,BIMF item 16 (I worry about how other people judge me (as a mother)) score,"[3]; Day 7, Day 0 score 3",5
same,BIMF item 10 (I trust my own feelings (instincts) when taking care of my baby) score,"[3]; Day 7, Day 0 score 5",6
same,BIMF functional domain Adjustment score,"[3]; Day 7, Day 0 score 5, maximum 12",6
same,BIMF functional domain Self Care score,"[3]; Day 7, Day 0 score 9, maximum 18",13
same,BIMF functional domain Infant Care score,"[3]; Day 7, Day 0 score 12, maximum 12",12
same,BIMF functional domain Mother-Child Interaction score,"[3]; Day 7, Day 0 score 15, maximum 18",17
same,BIMF functional domain Social Support score,"[3]; Day 7, Day 0 score 17, maximum 18",18
same,BIMF functional domain Management score,"[3]; Day 7, Day 0 score 28, maximum 36",33
same,BIMF functional domain Psychological Well-being score,"[3]; Day 7, Day 0 score 44, maximum 60",53
same,BIMF TOTAL Δ (Day 7),[3]; Day 7 vs Day 0,13
same,BIMF functional domain Adjustment % Improvement,[3]; Day 7 vs Day 0,20.00%
same,BIMF functional domain Adjustment Δ (Day 7),[3]; Day 7 vs Day 0,1
same,BIMF functional domain Infant Care % Improvement,[3]; Day 7 vs Day 0,0.00%
same,BIMF functional domain Infant Care Δ (Day 7),[3]; Day 7 vs Day 0,0
same,BIMF functional domain Management % Improvement,[3]; Day 7 vs Day 0,18% and 17.86%
same,BIMF functional domain Management Δ (Day 7),[3]; Day 7 vs Day 0,5
same,BIMF functional domain Mother-Child Interaction % Improvement,[3]; Day 7 vs Day 0,13.33%
same,BIMF functional domain Mother-Child Interaction Δ (Day 7),[3]; Day 7 vs Day 0,2
same,BIMF functional domain Psychological Well-being % Improvement,[3]; Day 7 vs Day 0,20.45%
same,BIMF functional domain Psychological Well-being Δ (Day 7),[3]; Day 7 vs Day 0,9
same,BIMF functional domain Self Care % Improvement,[3]; Day 7 vs Day 0,44% and 44.44%
same,BIMF functional domain Self Care Δ (Day 7),[3]; Day 7 vs Day 0,4
same,BIMF functional domain Social Support % Improvement,[3]; Day 7 vs Day 0,5.88%
same,BIMF functional domain Social Support Δ (Day 7),[3]; Day 7 vs Day 0,1
same,BIMF item 1 (I am a good mother) Δ (Day 7),[3]; Day 7 vs Day 0,0
same,BIMF item 2 (I feel rested) Δ (Day 7),[3]; Day 7 vs Day 0,2
same,BIMF item 3 (comfortable with the way I've chosen to feed my baby) Δ (Day 7),[3]; Day 7 vs Day 0,0
same,BIMF item 4 (My baby and I understand each other) Δ (Day 7),[3]; Day 7 vs Day 0,0
same,BIMF item 5 (able to relax and enjoy time with my baby) Δ (Day 7),[3]; Day 7 vs Day 0,1
same,BIMF item 6 (people I can trust to care for my baby when I need a break) Δ (Day 7),[3]; Day 7 vs Day 0,0
same,BIMF item 8 (getting enough adult interaction) Δ (Day 7),[3]; Day 7 vs Day 0,0
same,BIMF item 9 (getting enough encouragement from other people) Δ (Day 7),[3]; Day 7 vs Day 0,1
same,BIMF item 10 (I trust my own feelings (instincts) when taking care of my baby) Δ (Day 7),[3]; Day 7 vs Day 0,1
same,BIMF item 11 (a little time each week to do something for myself) Δ (Day 7),[3]; Day 7 vs Day 0,1
same,BIMF item 12 (taking good care of my baby's physical needs) Δ (Day 7),[3]; Day 7 vs Day 0,0
same,BIMF item 13 (taking good care of my physical needs) Δ (Day 7),[3]; Day 7 vs Day 0,1
same,BIMF item 14 (good decisions about my baby's health and well being) Δ (Day 7),[3]; Day 7 vs Day 0,0
same,BIMF item 15 (My baby and I are getting into a routine) Δ (Day 7),[3]; Day 7 vs Day 0,1
same,BIMF item 16 (I worry about how other people judge me (as a mother)) Δ (Day 7),[3]; Day 7 vs Day 0,2
same,BIMF item 17 (able to take care of my baby and my other responsibilities) Δ (Day 7),[3]; Day 7 vs Day 0,0
same,BIMF item 18 (Anxiety or worry often interferes with my mothering ability) Δ (Day 7),[3]; Day 7 vs Day 0,3
same,BIMF item 19 (getting better at taking care of my baby) Δ (Day 7),[3]; Day 7 vs Day 0,1
same,BIMF item 20 (satisfied with the job I am doing as a new mother) Δ (Day 7),[3]; Day 7 vs Day 0,−1
